Results taken from patent US12589170B2, “Devices and methods for radiopharmaceutical synthesis” (VANDERBILT UNIVERSITY, priority 2019, dated 2026).

What was measured:
[1] = Stability of final product at room temperature examined by radio-HPLC; type: physicochemical; details: duration up to about 4 hours
Description: A Hitachi HPLC (LaChrom Elite, Pump L-2130) equipped with a wavelength UV detector (L-2400, 254 nm) and inline radiation detector (Inline Carroll & Ramsey) was used to evaluate radiochemical purity. A C18 column (Phenomenex Gemini, particle size about 10 μm, 150×4.6 mm) was used. For the mobile phase, acetonitrile (referred as A1) mixed with water containing about 0.1% trifluoroacetic acid (TFA) was used with gradient as following: 0% A1/100% TFA for about 0-2 min, 100% A1/0% TFA for about 8-10 min. The flow rate was constantly set as about 1 mL/min. Moreover, radiochemical purity was also examined by radio thin layer chromatography (TLC) using ITLC (instant TLC) paper strips (Varian). […] The value of radioactivity was measured using a calibrated dose calibrator (Capintec, CRC-25PET). The radiochemical yields were evaluated as a percentage of total activity of ^68GaCl3 initially delivered from the generator. Unless specified elsewhere, all efficiencies are calculated based on decay-corrected values.
A radio-TLC chromatogram of synthesized product is shown in FIG. 6 and the ^68Ga-labelled peptide has an approximate retardation factor of about 0.8-1.0. Using the microfluidic device, the incorporation efficiency of 100% can be consistently achieved as determined by radio HPLC chromatogram (FIG. 7B). […]

[2] = system: rat brain; assay: microPET imaging of rat brain with [18F]fallypride produced in the microfluidic chip; type: in vivo; details: dose of about 300 μCi, microPET for about 2 hours
Text: To further verify the utility of the resulting [^18F]fallypride, we produced (using the integrated microfluidic chip) a dose of about 300 μCi with about 19.55 Ci/μmol (723.35 GBq/μmol) of specific activity and about 98.62% of radiochemical purity, and obtained PET data from a rat brain. The time point used to calculate the specific activity was at the end of production, namely the time when the purified [^18F]fallypride was retrieved from chip. The rat was brought to the imaging lab to habituate about 3 hours prior to imaging. About 0.1 ml purified [^18F] fallypride was filtered through an about 0.45 μm filter (Millex-HV) and about 0.9 ml saline was added to formulate the PET probe used for rat injection. […] The accumulation and pharmacokinetics of [^18F]fallypride were as expected when evaluated in the rat brain.

| SMILES | stability of final product (retention time, product purity by radio-HPLC) [1] | accumulation and pharmacokinetics in the rat brain [2] |
| --- | --- | --- |
| O=C([O-])CN(CCN(CC(=O)[O-])Cc1cc(CCC(=O)NCCCCCC(=O)NCCCC[C@H](NC(=O)N[C@@H](CCC(=O)O)C(=O)O)C(=O)O)ccc1[O-])Cc1cc(CCC(=O)O)ccc1[O-].[68Ga+3].[OH3+] [^68Ga-PSMA-11] | no discrepancy on retention time or product purity was observed |  |
| C=CCN1CCC[C@H]1CNC(=O)c1cc(CCC[18F])cc(OC)c1OC [[^18F]fallypride] |  | as expected |
